± gives the expanded uncertainty stated by the source.
Conditions: 101.33 kPa, Liquid; for electrical conductivity: Symmetrical Wheatstone bridge; for viscosity: Capillary tube (Ostwald / Ubbelohde) method; for mass density: Vibrating tube method

CCn1cc[n+](C)c1.O=S(=O)([N-]S(=O)(=O)C(F)(F)F)C(F)(F)F
Conditions | electrical conductivity [S/m] | mass density [kg/m3] | viscosity [mPa·s]
248.15 K | 0.0705 ± 0.00056 | – | –
258.15 K | 0.1475 ± 0.0012 | – | –
263.15 K | – | – | 175.1 ± 5.8
268.15 K | 0.2671 ± 0.0021 | – | 128.8 ± 4
278.15 K | 0.4347 ± 0.0035 | – | 75.13 ± 2.1
288.15 K | 0.6526 ± 0.0052 | – | 47.78 ± 1.3
293.15 K | – | – | 39.07 ± 1.1
298.15 K | 0.921 ± 0.0074 | 1519.3 ± 4.5 | 32.46 ± 0.88
303.15 K | 1.074 ± 0.0086 | 1514.2 ± 4.5 | 27.3 ± 0.74
313.15 K | 1.414 ± 0.011 | 1504.3 ± 4.4 | 19.97 ± 0.54
323.15 K | 1.799 ± 0.014 | 1494.3 ± 4.4 | 15.17 ± 0.41
333.15 K | 2.224 ± 0.018 | 1484.4 ± 4.3 | 11.87 ± 0.32
343.15 K | 2.689 ± 0.021 | – | 9.54 ± 0.26
353.15 K | 3.189 ± 0.025 | – | 7.83 ± 0.21

CCn1cc[n+](C)c1.F[B-](F)(F)F [1-ethyl-3-methylimidazolium tetrafluoroborate]
Conditions | electrical conductivity [S/m] | mass density [kg/m3] | viscosity [mPa·s]
238.15 K | 0.04188 ± 0.00034 | – | –
248.15 K | 0.1088 ± 0.00087 | – | –
258.15 K | 0.2333 ± 0.0019 | – | –
268.15 K | 0.4316 ± 0.0034 | – | –
269.15 K | – | – | 145 ± 4.6
273.15 K | – | – | 114.1 ± 3.4
278.15 K | 0.7168 ± 0.0057 | – | 86.88 ± 2.5
288.15 K | 1.096 ± 0.0088 | – | 54.1 ± 1.5
293.15 K | – | – | 44.19 ± 1.2
298.15 K | 1.573 ± 0.013 | 1288.8 ± 3.2 | 36.17 ± 0.98
303.15 K | 1.847 ± 0.015 | 1285 ± 3.2 | 30.13 ± 0.82
313.15 K | 2.466 ± 0.02 | 1277.5 ± 3.2 | 21.77 ± 0.59
323.15 K | 3.176 ± 0.025 | 1269.9 ± 3.1 | 16.35 ± 0.45
333.15 K | 3.97 ± 0.032 | 1262.4 ± 3.1 | 12.7 ± 0.35
343.15 K | 4.843 ± 0.039 | – | 10.12 ± 0.28
353.15 K | 5.794 ± 0.046 | – | 8.23 ± 0.22

CCCCn1cc[n+](C)c1.F[B-](F)(F)F [1-butyl-3-methylimidazolium tetrafluoroborate]
Conditions | electrical conductivity [S/m] | mass density [kg/m3] | viscosity [mPa·s]
258.15 K | 0.02318 ± 0.00019 | – | –
268.15 K | 0.05477 ± 0.00044 | – | –
278.15 K | 0.1137 ± 0.00091 | – | –
288.15 K | 0.2116 ± 0.0017 | – | –
293.15 K | – | – | 141.1 ± 4.4
298.15 K | 0.3587 ± 0.0029 | 1202.4 ± 2.8 | 107.6 ± 3.2
303.15 K | 0.4543 ± 0.0036 | 1198.6 ± 2.8 | 83.3 ± 2.3
313.15 K | 0.6913 ± 0.0055 | 1191.6 ± 2.7 | 52.81 ± 1.4
323.15 K | 0.9942 ± 0.008 | 1184.5 ± 2.7 | 35.53 ± 0.97
333.15 K | 1.364 ± 0.011 | 1177.3 ± 2.7 | 25.11 ± 0.68
343.15 K | 1.8 ± 0.014 | – | 18.48 ± 0.5
353.15 K | 2.301 ± 0.018 | – | 14.06 ± 0.38

CCn1cc[n+](C)c1.N#CN=C=[N-] [1-ethyl-3-methylimidazolium dicyanamide]
Conditions | electrical conductivity [S/m] | mass density [kg/m3] | viscosity [mPa·s]
238.15 K | 0.1546 ± 0.0012 | – | –
248.15 K | 0.3404 ± 0.0027 | – | –
258.15 K | 0.6305 ± 0.005 | – | 75.38 ± 2.1
263.15 K | – | – | 56.81 ± 1.5
268.15 K | 1.035 ± 0.0083 | – | 44.24 ± 1.2
273.15 K | – | – | 35.22 ± 0.96
278.15 K | 1.556 ± 0.012 | – | 28.59 ± 0.78
288.15 K | 2.189 ± 0.018 | – | 19.81 ± 0.54
293.15 K | – | – | 16.85 ± 0.46
298.15 K | 2.928 ± 0.023 | 1100.8 ± 2.3 | 14.5 ± 0.39
303.15 K | 3.342 ± 0.027 | 1097.5 ± 2.3 | 12.62 ± 0.34
313.15 K | 4.226 ± 0.034 | 1091 ± 2.3 | 9.8 ± 0.27
323.15 K | 5.194 ± 0.042 | 1084.4 ± 2.2 | 7.83 ± 0.21
333.15 K | 6.236 ± 0.05 | 1077.9 ± 2.2 | 6.43 ± 0.18
343.15 K | 7.343 ± 0.059 | – | 5.36 ± 0.15
353.15 K | 8.509 ± 0.068 | – | 4.55 ± 0.12

— the NIST ThermoML archive (doi:10.1021/je900878j)
